Measurements published in US7081447B2, “Organic compounds with biological activity as thrombin inhibitors and use thereof” (Novel Science International GmbH, priority 2001, dated 2006).
Non-standard residues stand in square brackets, D forms with d. Residues, ends and D or L forms follow the SMILES beside them. Cha = N[CH](CC1CCCCC1)C(=O)O; Nle = CCCC[CH](N)C(=O)O; Orn = NCCC[CH](N)C(=O)O

Biological target: thrombin (Homo sapiens, UniProt P00734)
Test: in vitro inhibition of thrombin amidase activity (fluorogenic substrate Tos-Gly-Pro-Arg-(7-amino-4-methylcoumarin))
Assay type: biochemical
Design: with 10 μL of human thrombin solution
Settings: for inhibition at 25 µM: peptide concentration of 25 μM; for inhibition at 10 µM: peptide concentration of 10 μM
Procedure: (§1) The values of the inhibition constant Ki were obtained from assays, in which thrombin hydrolyzes the fluorogenic substrate Tos-Gly-Pro-Arg-(7-amino-4-methylcoumarin). The assays were performed in 30 μL of assay buffer (0.05 M Tris, 0.1 M NaCl, 0.1% PEG 8000, pH 7.6) with 10 μL of human thrombin solution (10^−5 U/μL in assay buffer) and 140 μL of a solution of the fluorogenic substrate in assay buffer at a concentration v of 30 μM. Solutions of the test compound (10 μL) were added at various concentrations. The rates of substrate hydrolysis were measured by monitoring the reactions of 7-amino-4-methylcoumarin release at 460 nm with use of AMC. The reaction reached a steady state within 3 minutes after thrombin was combined with the substrate and an inhibitor. The kinetic data of the competitive inhibition (Km, Vmax, and Ki) were analyzed with the aid of the Hanes plot (A/V vs. A at various i values).
as §1, with “concentration” for “concentration v”, “using” for “with the aid of”, “values for A; here, A is the substrate concentration and V the reaction rate).” for “i values).”
as §1, with “conducted” for “performed”, “concentration” for “concentration v”, “using” for “with the aid of”, “values for A; here, A is the substrate concentration and V the reaction rate).” for “i values).”

[1] = peptide concentration of 1 μM, 1 µM
[2] = peptide concentration of 250 nM

## [H]/N=C(\N)NCCCC(NC(C)=O)C(=O)NC(CC1CCCCC1)C(=O)NC(CCCC)C(=O)NC(CC1CCCCC1)C(=O)NC(CCC(N)=O)C(N)=O [Example 1, N-Acetyl-L-Arg-L-Cha-L-Nle-L-Cha-D-Gln amide]
  inhibition at 25 µM: 66%

## [H]/N=C(\N)NCCCC(NC(C)=O)C(=O)NC(CC1CCCCC1)C(=O)NC(CC(=O)O)C(=O)NC(CC1CCCCC1)C(N)=O [Example 2, N-Acetyl-L-Arg-L-Cha-L-Asp-L-Cha amide]
  inhibition at 25 µM: 68%

## CCCCC(NC(=O)C(CC1CCCCC1)NC(=O)C(CCCNC(=N)N)NC(C)=O)C(=O)NC(CC1CCCCC1)C(=O)NC(CCCN)C(N)=O [Example 3, N-Acetyl-L-Arg-L-Cha-L-Nle-L-Cha-L-Orn amide] (Ac-R[Cha][Nle][Cha][Orn]-NH2; configuration not given here)
  inhibition at 10 µM: 63%

## CC(=O)NC(CCCNC(=N)N)C(=O)NC(CC1CCCCC1)C(=O)NC(CC1CCCCC1)C(=O)NC(CC1CCCCC1)C(=O)NC(CCC(=O)O)C(N)=O [Example 4, N-Acetyl-L-Arg-L-Cha-L-Cha-L-Cha-D-Glu amide] (Ac-R[Cha][Cha][Cha]E-NH2; configuration not given here)
  inhibition at 10 µM: 78%

## [H]/N=C(\N)NCCCC(NC(=O)C(Cc1ccc(O)cc1)NC(=O)C1CCCN1C(=O)C(CC1CCCCC1)NC(=O)C(CCCN/C(N)=N/[H])NC(C)=O)C(N)=O [Example 5, N-Acetyl-L-Arg-L-Cha-D-Pro-D-Tyr-L-Arg amide]
  inhibition at 10 µM: 98%

## [H]/N=C(\N)NCCCC(NC(C)=O)C(=O)NC(CC1CCCCC1)C(=O)NC(CC1CCCCC1)C(=O)NC(CC1CCCCC1)C(=O)NC(CCCN)C(N)=O [Example 6, N-Acetyl-L-Arg-L-Cha-L-Cha-L-Cha-L-Orn amide]
  inhibition at 10 µM: 71%

## CCCCC(NC(=O)C(CC1CCCCC1)NC(=O)C(CCCNC(=N)N)NC(C)=O)C(=O)NC(CC1CCCCC1)C(N)=O [Example 7, N-Acetyl-L-Arg-L-Cha-L-Nle-L-Cha amide] (Ac-R[Cha][Nle][Cha]-NH2; configuration not given here)
  inhibition at 10 µM: 60%

## CCCCC(NC(=O)C(CC1CCCCC1)NC(=O)C(CCCNC(=N)N)NC(C)=O)C(=O)NC(CC1CCCCC1)C(=O)NC(CCC(=O)O)C(N)=O [Example 8, N-Acetyl-L-Arg-L-Cha-L-Nle-L-Cha-D-Glu amide] (Ac-R[Cha][Nle][Cha]E-NH2; configuration not given here)
Peptide concentration of 1 μM
  inhibition at 1 µM: 35%

## N-Acetyl-D-Gln-D-His-L-Cha-D-Pro-D-Tyr-L-Arg amide [Example 25]
Peptide concentration of 1 μM
  Thrombin inhibition (thrombin amidase activity): 59%

## N-Acetyl-D-Glu-L-Cha-D-Pro-D-Tyr-L-Arg amide [Example 26]
Peptide concentration of 1 μM
  Thrombin inhibition (thrombin amidase activity): 58%

## N-Acetyl-D-Lys-D-Pro-L-Cha-D-Pro-D-Tyr-L-Arg amide [Example 14]
Peptide concentration of 1 μM
  Thrombin inhibition (thrombin amidase activity): 53%

## N-Acetyl-D-Lys-L-Nle-L-Cha-D-Pro-D-Tyr-L-Arg amide [Example 20]
[1]
  Thrombin inhibition (thrombin amidase activity): 44%

## N-Acetyl-D-Lys-L-Nle-L-Cha-D-Pro-D-Tyr-L-Arg amide [Example 36]
[1]
  Thrombin inhibition (thrombin amidase activity): 48%

## N-Acetyl-D-Lys-L-Nle-L-Cha-D-Pro-D-Tyr-L-Arg amide [Example 51]
[1]
  Thrombin inhibition (thrombin amidase activity): 48%

## N-Acetyl-D-Lys-L-Nle-L-Cha-D-Pro-D-Tyr-L-Arg amide [Example 69]
[1]
  Thrombin inhibition (thrombin amidase activity): 48%

## N-Acetyl-D-Phe-D-Cha-L-Aze-D-Tyr-L-Har amide [Example 77]
[2]
  Thrombin inhibition (thrombin amidase activity): 77%

## N-Acetyl-D-Tyr-L-Cha-D-Pro-D-Tyr-L-Arg amide [Example 24]
[1]
  Thrombin inhibition (thrombin amidase activity): 27%

## N-Acetyl-D-Tyr-L-Cha-D-Pro-D-Tyr-L-Arg amide [Example 37]
[1]
  Thrombin inhibition (thrombin amidase activity): 47%

## N-Acetyl-D-Tyr-L-Cha-D-Pro-D-Tyr-L-Arg amide [Example 52]
[1]
  Thrombin inhibition (thrombin amidase activity): 47%

## N-Acetyl-D-Tyr-L-Cha-D-Pro-D-Tyr-L-Arg amide [Example 70]
[1]
  Thrombin inhibition (thrombin amidase activity): 47%

## N-Acetyl-D-Val-D-His-L-Cha-D-Pro-D-Tyr-L-Arg amide [Example 27]
Peptide concentration of 1 μM
  Thrombin inhibition (thrombin amidase activity): 51%

## N-Acetyl-D-Val-L-Ala-L-Cha-D-Pro-D-Tyr-L-Arg amide [Example 9]
Peptide concentration of 1 μM
  Thrombin inhibition (thrombin amidase activity): 53%

## N-Acetyl-D-Val-L-Cha-D-Pro-D-Tyr-L-Arg amide [Example 12]
[1]
  Thrombin inhibition (thrombin amidase activity): 46%

## N-Acetyl-D-Val-L-Cha-D-Pro-D-Tyr-L-Arg amide [Example 32]
[1]
  Thrombin inhibition (thrombin amidase activity): 45%

## N-Acetyl-D-Val-L-Cha-D-Pro-D-Tyr-L-Arg amide [Example 47]
[1]
  Thrombin inhibition (thrombin amidase activity): 45%

## N-Acetyl-D-Val-L-Cha-D-Pro-D-Tyr-L-Arg amide [Example 65]
[1]
  Thrombin inhibition (thrombin amidase activity): 45%

## N-Acetyl-L-Ala-D-Cha-L-Aze-D-Tyr-L-Arg amide [Example 55]
Peptide concentration of 1 μM
  Thrombin inhibition (thrombin amidase activity): 63%

## N-Acetyl-L-Ala-D-Cha-L-Aze-D-Tyr-L-Har amide [Example 57]
Peptide concentration of 1 μM
  Thrombin inhibition (thrombin amidase activity): 83%

## N-Acetyl-L-Ala-D-Cha-L-Aze-D-Tyr-L-Har amide [Example 76]
[2]
  Thrombin inhibition (thrombin amidase activity): 77%

## N-Acetyl-L-Ala-D-Cha-L-Pro-D-Tyr-L-Har amide [Example 56]
Peptide concentration of 1 μM
  Thrombin inhibition (thrombin amidase activity): 56%

## N-Acetyl-L-Ala-L-Cha-D-Pro-D-Tyr-L-Arg amide [Example 28]
Peptide concentration of 1 μM
  Thrombin inhibition (thrombin amidase activity): 44%

## N-Acetyl-L-Arg-L-Cha-D-Pro-D-Tyr-L-Arg amide [Example 21]
[1]
  Thrombin inhibition (thrombin amidase activity): 38%

## N-Acetyl-L-Arg-L-Cha-D-Pro-D-Tyr-L-Arg amide [Example 38]
[1]
  Thrombin inhibition (thrombin amidase activity): 47%

## N-Acetyl-L-Arg-L-Cha-D-Pro-D-Tyr-L-Arg amide [Example 53]
[1]
  Thrombin inhibition (thrombin amidase activity): 47%

## N-Acetyl-L-Arg-L-Cha-D-Pro-D-Tyr-L-Arg amide [Example 71]
[1]
  Thrombin inhibition (thrombin amidase activity): 47%

## N-Acetyl-L-Asp-L-Ser-L-Cha-D-Pro-D-Tyr-L-Arg amide [Example 10]
Peptide concentration of 1 μM
  Thrombin inhibition (thrombin amidase activity): 51%

## N-Acetyl-L-Cha-D-Cha-L-Aze-D-Tyr-L-Har amide [Example 85]
[2]
  Thrombin inhibition (thrombin amidase activity): 90%

## N-Acetyl-L-Dcp-D-Cha-L-Aze-D-Tyr-L-Har amide [Example 78]
[2]
  Thrombin inhibition (thrombin amidase activity): 75%

## N-Acetyl-L-Ile-L-Arg-L-Cha-D-Pro-D-Tyr-L-Arg amide [Example 29]
Peptide concentration of 1 μM
  Thrombin inhibition (thrombin amidase activity): 61%

## N-Acetyl-L-Ile-L-Cha-D-Pro-D-Tyr-L-Arg amide [Example 11]
Peptide concentration of 1 μM
  Thrombin inhibition (thrombin amidase activity): 48%

## N-Acetyl-L-Iq3-D-Cha-L-Aze-D-Tyr-L-Har amide [Example 80]
[2]
  Thrombin inhibition (thrombin amidase activity): 72%

## N-Acetyl-L-Nhm-D-Cha-L-Aze-D-Tyr-L-Har amide [Example 79]
[2]
  Thrombin inhibition (thrombin amidase activity): 80%

## N-Acetyl-L-Nle-D-Cha-L-Aze-D-Tyr-L-Har amide [Example 84]
[2]
  Thrombin inhibition (thrombin amidase activity): 89%

## N-Acetyl-L-Phg-D-Cha-L-Aze-D-Tyr-L-Har amide [Example 83]
[2]
  Thrombin inhibition (thrombin amidase activity): 95%

## N-Acetyl-L-Pnp-D-Cha-L-Aze-D-Tyr-L-Har amide [Example 86]
[2]
  Thrombin inhibition (thrombin amidase activity): 72%

## N-Acetyl-L-Ppd-D-Cha-L-Aze-D-Tyr-L-Har amide [Example 81]
[2]
  Thrombin inhibition (thrombin amidase activity): 76%

## N-Acetyl-L-Ser-D-Glu-L-Cha-D-Pro-D-Tyr-L-Arg amide [Example 23]
Peptide concentration of 1 μM
  Thrombin inhibition (thrombin amidase activity): 21%

## N-Acetyl-L-Ser-D-Val-L-Cha-D-Pro-D-Tyr-L-Arg amide [Example 16]
Peptide concentration of 1 μM
  Thrombin inhibition (thrombin amidase activity): 48%

## N-Acetyl-L-Ser-L-Ala-L-Cha-D-Pro-D-Tyr-L-Arg amide [Example 17]
[1]
  Thrombin inhibition (thrombin amidase activity): 48%

## N-Acetyl-L-Ser-L-Ala-L-Cha-D-Pro-D-Tyr-L-Arg amide [Example 34]
[1]
  Thrombin inhibition (thrombin amidase activity): 47%

## N-Acetyl-L-Ser-L-Ala-L-Cha-D-Pro-D-Tyr-L-Arg amide [Example 49]
[1]
  Thrombin inhibition (thrombin amidase activity): 47%
